For 22 compounds, IC50, Activity and inhibition results are on record in ChEMBL document CHEMBL5579876, “Small Molecules Blocking the Assembly of TCAB1 and Telomerase Complexes: Lead Discovery and Biological Activity” (ACS Med Chem Lett, 2024).

Series [1] concerns the target Telomerase reverse transcriptase (Homo sapiens, UniProt O14746). The series can be described thus: Inhibition of telomerase activity in human HL-60 cells incubated for 96 hrs by TRAP-PCR assay. Type of series: cell-based.
For series [2], the target named is Telomerase Cajal body protein 1 (Homo sapiens) (UniProt Q9BUR4). The series can be described thus: Thermal stabilization of TCAB1 in human HL-60 cells at 10 uM incubated for 30 mins by CETSA. Type of series: cell-based.
Sequence of Telomerase Cajal body protein 1 (Homo sapiens) (Q9BUR4 whole entry): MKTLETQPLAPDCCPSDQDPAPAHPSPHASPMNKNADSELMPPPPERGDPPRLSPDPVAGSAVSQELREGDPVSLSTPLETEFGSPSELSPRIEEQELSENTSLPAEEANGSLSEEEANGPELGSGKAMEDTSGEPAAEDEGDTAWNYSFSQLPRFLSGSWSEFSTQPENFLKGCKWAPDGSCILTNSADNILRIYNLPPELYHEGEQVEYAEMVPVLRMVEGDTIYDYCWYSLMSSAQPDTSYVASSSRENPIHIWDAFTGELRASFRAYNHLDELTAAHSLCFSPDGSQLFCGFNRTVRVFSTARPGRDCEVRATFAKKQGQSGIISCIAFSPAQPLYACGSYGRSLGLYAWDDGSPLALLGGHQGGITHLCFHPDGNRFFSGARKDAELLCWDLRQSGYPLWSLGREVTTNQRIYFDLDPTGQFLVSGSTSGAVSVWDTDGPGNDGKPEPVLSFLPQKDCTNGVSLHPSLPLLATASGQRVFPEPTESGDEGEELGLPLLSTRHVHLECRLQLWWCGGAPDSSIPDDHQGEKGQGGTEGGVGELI
Series [3] shares this target. The series can be described thus: Inhibition of hTERT binding to TCAB1 in human HL-60 cells at 10 uM incubated for 48 hrs by Co-IP analysis. Type of series: cell-based.
A short description of series [4]: Cytotoxicity against human GES1 cells assessed as inhibition of cell growth measured after 96 hrs by CCK-8 assay. Type of series: toxicity, cell-based. (In general: Tetrazolium assays rely on reduction of a dye to a coloured formazan, in cell work by metabolically active cells.)
Series [5] relates to HL-60. Nature of the series: cells. The conditions noted are these: Homo sapiens, HL-60, 96 h.
Description: Antiproliferative activity against human HL-60 cells assessed as inhibition of cell growth measured after 96 hrs by CCK-8 assay
Series [6] relates to CT26. The series can be described thus: cells. The conditions noted are these: Mus musculus, CT26, 96 h.
Description: Antiproliferative activity against mouse CT26 cells assessed as inhibition of cell growth measured after 96 hrs by CCK-8 assay

Activity calls are given as the source filed them. The rule behind the calls is not given here.

The IC50 is the point on the concentration scale where inhibition reaches its midpoint.

Sequence of Telomerase reverse transcriptase (O14746 whole entry): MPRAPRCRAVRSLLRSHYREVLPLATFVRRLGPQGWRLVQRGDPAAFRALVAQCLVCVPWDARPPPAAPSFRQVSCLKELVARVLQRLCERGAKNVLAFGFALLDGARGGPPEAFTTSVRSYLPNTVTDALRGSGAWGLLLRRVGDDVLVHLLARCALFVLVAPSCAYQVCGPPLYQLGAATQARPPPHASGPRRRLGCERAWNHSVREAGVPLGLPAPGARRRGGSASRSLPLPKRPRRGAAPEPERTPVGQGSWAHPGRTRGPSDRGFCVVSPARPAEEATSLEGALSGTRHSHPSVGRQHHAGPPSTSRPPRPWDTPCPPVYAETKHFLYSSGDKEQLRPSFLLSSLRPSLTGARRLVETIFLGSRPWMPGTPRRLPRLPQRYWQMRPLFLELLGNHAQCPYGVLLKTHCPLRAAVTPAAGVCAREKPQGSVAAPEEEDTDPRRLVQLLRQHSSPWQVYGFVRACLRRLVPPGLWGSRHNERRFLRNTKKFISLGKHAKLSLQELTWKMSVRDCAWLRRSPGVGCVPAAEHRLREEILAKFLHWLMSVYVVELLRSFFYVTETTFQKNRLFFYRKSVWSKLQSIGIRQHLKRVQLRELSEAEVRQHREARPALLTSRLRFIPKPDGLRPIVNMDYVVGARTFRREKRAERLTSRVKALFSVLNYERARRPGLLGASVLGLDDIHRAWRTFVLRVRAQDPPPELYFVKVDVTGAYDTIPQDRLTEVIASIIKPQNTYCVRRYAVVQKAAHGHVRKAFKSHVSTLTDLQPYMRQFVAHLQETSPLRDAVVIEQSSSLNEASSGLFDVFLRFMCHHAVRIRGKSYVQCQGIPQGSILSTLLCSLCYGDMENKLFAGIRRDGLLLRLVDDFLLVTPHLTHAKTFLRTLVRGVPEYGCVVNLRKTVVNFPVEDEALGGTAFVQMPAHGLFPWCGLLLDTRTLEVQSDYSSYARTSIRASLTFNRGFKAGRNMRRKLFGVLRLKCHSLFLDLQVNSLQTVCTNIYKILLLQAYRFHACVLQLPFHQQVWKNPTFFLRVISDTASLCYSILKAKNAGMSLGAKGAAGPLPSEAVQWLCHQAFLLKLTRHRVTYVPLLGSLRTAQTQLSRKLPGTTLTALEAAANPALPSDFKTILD

As for `O=C(CCS(=O)(=O)c1nc(-c2ccccc2)cc(C(F)(F)F)n1)Nc1cccnc1Cl`, the IC50 in series [1] was over 10 µM.
With `C#CCOc1ccc(/C=C2\SC(Nc3ccc(OCC)cc3)=C(C(=O)OCC)C2=O)cc1OC`, in series [2], the result was Active. In series [3], the inhibition result is “inactive”. In addition, the IC50 at 96 h in series [4] is over 1000 µM. The IC50 in series [5] is over 200 µM; in series [6], 46.3 µM.
In turn, `COc1ccc(C(=O)C2=C(O)C(=O)N(CCO)C2c2ccc(C)cc2)cc1` (configuration not stated) registered an IC50 in series [1] of over 10 µM.
As for `C/C(=C\C(=O)Nc1ccccc1C(=O)O)c1ccc2ccccc2c1`, the IC50 in series [1] came to 0.091 µM; in series [5], 47.8 µM; in series [6], 42.9 µM. In addition, in series [4], the IC50 at 96 h was determined as 206 µM.
`CCn1c(CN2NC(C)=CCC2=O)nnc1SCC(=O)Nc1ccc(S(N)(=O)=O)cc1` came in with an IC50 in series [1] of over 10 µM.
`O=C(C1=C(O)C(=O)N(Cc2ccco2)C1c1cccc(O)c1)c1ccc2c(c1)OCCO2` (configuration not stated): the result in series [2] was Active. For the same compound, in series [3], the inhibition entry is “inactive”. In addition, in series [4], the IC50 at 96 h was over 1000 µM. In addition, the IC50 in series [5] and in series [6] was over 200 µM throughout.
`CCOc1cc(/C=C2/C(=N)N3N=C(C)SC3=NC2=O)ccc1OCCOc1cccc(OC)c1` came in with an IC50 in series [1] of over 10 µM.
Still for that read-out and setting: in the case of `CC(=O)Nc1ccc(/C=C2\C=C(C(O)c3ccc(NC(C)=O)cc3)c3ccccc32)cc1` (configuration not stated) it was over 10 µM; in that of `CCCc1cc(=O)oc2cc(OCC(=O)Nc3ccc(S(N)(=O)=O)cc3)c(Cl)cc12`, over 10 µM; in that of `Cc1ccc2nc(NCCO)c(/C=C3\SC(=S)N(Cc4ccc5c(c4)OCO5)C3=O)c(=O)n2c1`, over 10 µM.
For `CCOc1cc(C2NC(=O)NC(C)=C2C(=O)OCc2ccc3c(c2)OCO3)ccc1O` (configuration not stated), the IC50 in series [1] was over 10 µM.
The same measure, in the same setting: in the case of `O=C(C1=C(O)C(=O)N(CCOCCO)C1c1cccc(O)c1)c1cccs1` (configuration not stated) it was over 10 µM; in that of `CCOc1ccc(N2C(=O)CC(N(CCc3ccc(S(N)(=O)=O)cc3)C(C)=O)C2=O)cc1` (configuration not stated), over 10 µM; in that of `CCOC(=O)C1=C(C)N=c2s/c(=C\c3ccc(O)c(OC)c3)c(=O)n2C1c1ccc(OCC)cc1` (configuration not stated), over 10 µM.
In turn, `CCOc1cc(C2C(C#N)=C(N)Oc3n[nH]c(C(C)(C)C)c32)ccc1OCCN1CCOCC1` (configuration not stated) gave an IC50 in series [1] of over 10 µM.
Still for that read-out and setting: in the case of `CC(=O)c1cccc(/N=c2\scc(-c3ccc(S(=O)(=O)N4CCOCC4)cc3)n2CCO)c1` it was over 10 µM; in that of `COc1ccc(-c2ccc(S(=O)(=O)NCCO)cc2)c(S(=O)(=O)NCCO)c1`, over 10 µM; in that of `CCC(CO)NS(=O)(=O)c1cccc2c(S(=O)(=O)NC(CC)CO)cccc12` (configuration not stated), over 10 µM.
Still for that read-out and setting: as for `COc1ccc(C2C(C(=O)Nc3ccc(Cl)cc3)=C(C)N=C3N=C(CCCO)NN32)c(OC)c1` (configuration not stated), the figure is over 10 µM; as for `CCOc1cc(C2NC(=O)N(C)C(C)=C2C(=O)OCC2CCCO2)cc(Cl)c1O` (configuration not stated), over 10 µM; as for `CCOC(=O)c1cccc(NC(=O)CSc2nnc(-c3cccnc3)n2-c2ccc(OC)cc2)c1`, over 10 µM.
In the case of `COC(=O)C1=C(C)N(CC2CCCO2)C(=O)/C1=C\c1ccc(OCC(=O)NC(C)C)cc1` (configuration not stated), in series [2], the result was Active. The inhibition entry in series [3] was “inactive”. Besides, the IC50 at 96 h in series [4] was over 1000 µM. The results for the IC50 in series [5] and in series [6] were 156 µM and 26.9 µM, respectively.
